Counter-ions that a name gives are not always drawn.
Columns and labels:
[1] = tested on: SW480; experiment: In vitro cytotoxicity MTS assay
Description: (§4) The IC50 for each cell line was assessed by MTS assays. The average IC50 values along with standard deviations were calculated from two to five individual determinations for each cell line. […] The IC50 unit is μM.
(§5) Cytotoxicity was assessed in cells by MTS (3-(4,5-dimethylthiazol-2-yl)-5-(3-carboxymethoxyphenyl)-2-(4-sulphenyl)-2H-tetrazolium, inner salt) assay (T. L. Riss et al., 1992, Mol. Biol. Cell, 3 (Suppl.): 184a).
(§6) To carry out the assays, the colon cells were plated at 4,000 cell/well in 96 well microtiter plates and 24 hours later serial diluted drugs were added. […] The cells were incubated at 37° C. for 72 hours at which time the tetrazolium dye MTS (333 μg/ml final concentration) in combination with the electron coupling agent phenazine methosulfate (25 μM final concentration) was added. A dehydrogenase enzyme in live cells reduces the MTS to a form that absorbs light at 492 nm that can be quantified spectrophotometrically. The greater the absorbency, the greater the number of live cells. The results were expressed as an IC50, which is the drug concentration required to inhibit cell proliferation (i.e., absorbance at 450 mm) to 50% of that of untreated control cells. The mean IC50 and standard deviation (SD) from multiple tests for each cell line were calculated.

[2] = tested on: Colo320HSR; experiment: In vitro cytotoxicity MTS assay; type: cell-based; details: Homo sapiens, COLO-320-HSR, 72 hours, mean of 2 to 5 determinations
[3] = tested on: CCD_33C0; experiment: In vitro cytotoxicity MTS assay; type: cell-based; details: Homo sapiens, 72 hours, mean of 2 to 5 determinations, asterisk = sensitive
[4] = tested on: Caco2; experiment: In vitro cytotoxicity MTS assay; type: cell-based; details: Homo sapiens, Caco-2, 72 hours, mean of 2 to 5 determinations, asterisk = sensitive
[5] = tested on: T84; experiment: In vitro cytotoxicity MTS assay; type: cell-based; details: Homo sapiens, 72 hours, mean of 2 to 5 determinations
[6] = tested on: SW620; experiment: In vitro cytotoxicity MTS assay; type: cell-based; details: Homo sapiens, SW-620, 72 hours, mean of 2 to 5 determinations
[7] = tested on: HCT116S542; experiment: In vitro cytotoxicity MTS assay; type: cell-based; details: Homo sapiens, 72 hours, mean of 2 to 5 determinations
[8] = tested on: HCT8; experiment: In vitro cytotoxicity MTS assay; type: cell-based; details: Homo sapiens, HCT-8, 72 hours, mean of 2 to 5 determinations
[9] = tested on: MIP; experiment: In vitro cytotoxicity MTS assay; type: cell-based; details: Homo sapiens, 72 hours, mean of 2 to 5 determinations
[10] = tested on: CCD18Co; experiment: In vitro cytotoxicity MTS assay; type: cell-based; details: Homo sapiens, CCD-18Co, 72 hours, mean of 2 to 5 determinations
[11] = tested on: CX-1; experiment: In vitro cytotoxicity MTS assay; type: cell-based; details: Homo sapiens, 72 hours, mean of 2 to 5 determinations
[12] = tested on: Colo320DM; experiment: In vitro cytotoxicity MTS assay
Description: as §4, §5, §6

[13] = tested on: LOVO; experiment: In vitro cytotoxicity MTS assay; type: cell-based; details: Homo sapiens, 72 hours, mean of 2 to 5 determinations, asterisk = sensitive
[14] = tested on: Sk-Co-1; experiment: In vitro cytotoxicity MTS assay; type: cell-based; details: Homo sapiens, 72 hours, mean of 2 to 5 determinations
[15] = tested on: HCT116; experiment: In vitro cytotoxicity MTS assay; type: cell-based; details: Homo sapiens, HCT-116, 72 hours, mean of 2 to 5 determinations
[16] = tested on: SW1417; experiment: In vitro cytotoxicity MTS assay; type: cell-based; details: Homo sapiens, 72 hours, mean of 2 to 5 determinations
[17] = tested on: SW403; experiment: In vitro cytotoxicity MTS assay; type: cell-based; details: Homo sapiens, SW-403, 72 hours, mean of 2 to 5 determinations, asterisk = sensitive
[18] = tested on: Colo-201; experiment: In vitro cytotoxicity MTS assay; type: cell-based; details: Homo sapiens, 72 hours, mean of 2 to 5 determinations
[19] = tested on: HT-29; experiment: In vitro cytotoxicity MTS assay; type: cell-based; details: Homo sapiens, 72 hours, mean of 2 to 5 determinations
[20] = tested on: LS174T; experiment: In vitro cytotoxicity MTS assay; type: cell-based; details: Homo sapiens, 72 hours, mean of 2 to 5 determinations, asterisk = sensitive
[21] = tested on: Colo-205; experiment: In vitro cytotoxicity MTS assay; type: cell-based; details: Homo sapiens, 72 hours, mean of 2 to 5 determinations
[22] = tested on: SW837; experiment: In vitro cytotoxicity MTS assay; type: cell-based; details: Homo sapiens, 72 hours, mean of 2 to 5 determinations
[23] = tested on: H292 lung cancer cell line; details: serum starved, 20 ng/ml EGF, 0.5, 6 and 18 hours, vs media alone
Description: (§1) Control cells were treated with media alone. The expression profiling was performed, and data was analyzed using GeneChip® Expression Analysis software MAS 5.0 (Affymetrix, Santa Clara, Calif.).
(§2) The colon cells were grown using standard cell culture conditions: RPMI 1640 supplemented to contain 10% fetal bovine serum, 100 IU/ml penicillin, […] streptomycin, 2 mM L-glutamine and 10 mM Hepes (all from GibcoBRL, Rockville, Md.). RNA was isolated from 50-70% confluent cells or drug-treated cells using the RNeasy™ kits commercially available from Qiagen (Valencia, Calif.). Quality of the RNA was checked by measuring the 28s:18s ribosomal RNA ratio using Agilent 2100 bioanalyzer (Agilent, Technologies, Rockville, Md.). Concentration of total RNA was determined spectrophotometrically. 10 μg of total RNA from each cell line was used to prepare biotinylated probe according to the Affymetrix Genechip® Expression Analysis Technical Manual, 2001. Targets were hybridized to Affymetrix high density oligonucleotide array human HG-U133 set chips (Affymetrix, Santa Clara, Calif.). Arrays were then washed, and stained using the GeneChip Fluidics station according to the manufacture's instructions. The HG-U133 set consisting of two GeneChip® arrays contains nearly 45,000 probe sets representing more than 39,000 transcripts derived from approximately 33,000 well-substantiated human genes.
(§3) For the EGF induction studies, the colon cell line CACO2 and the lung cancer H292 cell line were washed 2×PBS, and the media was changed to RPMI without serum. The next day the cells were treated with 20 ng/ml EGF, and eventually lysed for RNA isolation 0.5, 6 and 18 hours post treatment. Gene expression was profiled as described below.

[24] = tested on: CACO2 colon cancer cell line; details: serum starved, 20 ng/ml EGF, 0.5, 6 and 18 hours, vs media alone
Description: as §1, §2, §3

Compound: C#Cc1cccc(Nc2ncnc3cc(OCCOC)c(OCCOC)cc23)c1 [BMS-461453, erlotinib HCl]
- IC50 ([1]; Homo sapiens, SW480, 72 h): > 10 µM
- Sensitivity of cell line to the EGFR inhibitor ([1]; SW480, expressing EGFR): insensitive
- IC50 [2]: > 10 µM
- IC50 [3]: 2 µM
- IC50 [4]: 5.5 µM
- IC50 [5]: > 10 µM
- IC50 [6]: > 10 µM
- IC50 [7]: > 10 µM
- IC50 [8]: > 10 µM
- IC50 [9]: 9.7 µM
- IC50 [10]: 7.1 µM
- IC50 [11]: > 10 µM
- Sensitivity of cell line to the EGFR inhibitor ([12]; COLO320_DM, does not express EGFR): resistant
- IC50 ([12]; Homo sapiens, COLO 320DM, 72 h): > 10 µM
- IC50 [13]: 2.3 µM
- IC50 [14]: 9 µM
- IC50 [15]: > 10 µM
- IC50 [16]: > 10 µM
- IC50 [17]: 5.7 µM
- IC50 [18]: > 10 µM
- IC50 [19]: > 10 µM
- IC50 [20]: 3.5 µM
- IC50 [21]: > 10 µM
- IC50 [22]: 7.2 µM

Compound: epidermal growth factor [EGFR]
- Expression of 3-hydroxy-3-methylglutaryl-Coenzyme A synthase 2 stimulated [23]: Expression stimulated 3 fold by
- Expression of BTG family, member 2 (BTG2) stimulated [23]: Expression stimulated 2 fold by
- Expression of cystic fibrosis transmembrane conductance regulator (CFTR) stimulated [23]: Expression stimulated 2 fold by
- Expression of prostaglandin G/H synthase and cyclooxygenase stimulated [23]: Expression stimulated 6 fold by
- Expression of serine (or cysteine) proteinase inhibitor, clade B (ovalbumin), member 5 (SERPINB5) stimulated [23]: Expression stimulated 2 fold by
- Expression of EphA1 (EPHA1) stimulated [24]: Expression stimulated 2 fold by

From US20060234237A1 (priority 2004, published 2006)
